Read-outs that look alike come from different tables or passages of the source. Non-standard residues stand in square brackets, D forms with d. Residues, ends and D or L forms follow the SMILES beside them. No end group written: not given here. Hyp = O=C(O)[C@@H]1C[C@@H](O)CN1
Tests used:
[1] = system: HIEC-6/HepG2 cell coculture system
Description: Based on the daily dose used in the clinical trials and the current recommendations of the bottle, 1200 mg of Genacol CH product (bovine) or a generic CH product (bovine) was added (3% w/v) to sterile ddH2O (Bernado & Azarcon, 2012; Bruyère et al., 2012; Feliciano et al., 2017). Three independent digestions for each CH product were completed. The vessels were placed in a 37° C. water bath, with continuous agitation. A pepsin solution was added, the pH adjusted to 2 and incubated for 30 min. Then, a bile solution was added, the pH adjusted to 7.5 and incubated for 90 min at 37° C. Pepsin (4% w/w protein basis) and pancreatin (4% w/w protein basis) were added (Aleman et al., 2013). The pancreatin digestion was stopped with the addition of NaOH, until the pH was 10 and the resulting digesta was cooled and frozen at −80° C. Digesta subsamples were taken and filtered using 0.2 μm syringe filters.
The final digesta was filtered using a molecular weight cut off (MWCO) of 10 kDa in a stirred Amicon™ ultrafiltration membrane reactor at 4° C. under a nitrogen gas pressure of 40 psi (Iskandar et al., 2015). The filtrates were freeze-dried at −50 to −60° C. and 0.85 mBar (0.64 mm Hg) (Gamma 1-16 LSC, Christ, Osterode am Harz, Germany) and stored at −80° C. until used in cell culture.
Two bovine-sourced CH products were used: Original Formula® (Genacol, Blainville, QC) (CH-GL) and a generic brand (such as Selection™, Uniprix, Quebec, Canada) (CH-GR). HIEC-6 (ATCC® CRL-3266™) and Hep G2 (ATCC® HB-8065™) cells were purchased from ATCC to represent the gastrointestinal and liver wall lining, respectively. HIEC-6 cells were cultured using OptiMEM™ 1 Reduced Serum Medium (Gibco Catalog No. 31985) with 20 mM HEPES, 10 mM GlutaMAX™ (Gibco Catalog No. 35050), 10 ng/mL Epidermal Growth Factor, 4% fetal bovine serum (FBS). HepG2 cells were grown using ATCC-formulated Eagle's Minimum Essential Medium (Catalog No. 30-2003), with 10% FBS. Cells were maintained at 37° C. with 90% relative humidity (RH) and 5% C02 in culture medium as described herein.
HIEC-6/HepG2 cell coculture system was used to determine the bioavailability of key bioactive peptides from CHs after digestion. HIEC-6 and HepG2 cells were cultured separately but then later combined in a transwell system.
HIEC-6 cells were seeded onto 24-well polyester (PET) ThinCert™ inserts from Greiner Bio-One (Kremsmünster, Austria) at a density of 1×10^5 cells/well. The medium was changed every 2 days and the cells were grown for a total of 8-9 days. Transepithelial electrical resistance (TEER) was measured using a volt-ohmmeter to assess integrity of monolayer. […] Three individual plate experiments were completed for each CH product.
At time 0, the apical medium was replaced with medium containing 2 mg/ml of freeze-dried CH dissolved in medium using either the Genacol (GL) peptide or the Generic (GR) CH products. HepG2 cells were added to the basolateral side of the transwell (1 million cells/mL). The plates were incubated for 2 h at 37° C., 5% C02. Subsamples were taken at time 0, and after 2 h.

[2] = human, in vivo, po, 80 mg/kg; cited from earlier work
[3] = system: Caco-2 cells; settings: cited from earlier work
[4] = target: dipeptidyl peptidase-4 (DPP-IV) (Homo sapiens, UniProt P27487); settings: literature; cited from earlier work
Sequence of dipeptidyl peptidase-4 (DPP-IV) (P27487 whole entry, species assumed): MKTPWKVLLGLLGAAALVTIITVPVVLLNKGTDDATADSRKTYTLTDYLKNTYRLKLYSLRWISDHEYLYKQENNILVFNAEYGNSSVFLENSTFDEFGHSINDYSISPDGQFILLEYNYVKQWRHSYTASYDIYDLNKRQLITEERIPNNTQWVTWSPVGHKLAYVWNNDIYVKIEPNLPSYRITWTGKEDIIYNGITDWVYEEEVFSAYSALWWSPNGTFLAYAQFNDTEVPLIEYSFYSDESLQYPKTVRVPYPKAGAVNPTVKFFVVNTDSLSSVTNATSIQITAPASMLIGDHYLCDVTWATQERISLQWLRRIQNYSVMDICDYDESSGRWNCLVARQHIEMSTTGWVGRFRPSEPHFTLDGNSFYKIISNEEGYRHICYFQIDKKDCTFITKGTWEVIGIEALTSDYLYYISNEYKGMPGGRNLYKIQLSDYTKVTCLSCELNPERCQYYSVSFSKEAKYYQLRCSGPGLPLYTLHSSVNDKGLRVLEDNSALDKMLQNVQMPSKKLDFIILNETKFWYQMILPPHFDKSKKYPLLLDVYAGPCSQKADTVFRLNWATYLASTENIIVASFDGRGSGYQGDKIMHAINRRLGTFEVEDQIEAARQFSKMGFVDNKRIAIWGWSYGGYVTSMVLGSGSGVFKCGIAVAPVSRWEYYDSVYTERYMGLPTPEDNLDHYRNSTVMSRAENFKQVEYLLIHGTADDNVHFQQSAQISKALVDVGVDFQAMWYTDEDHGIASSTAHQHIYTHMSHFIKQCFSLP

[5] = cited from earlier work

Compound: C[C@H](N)C(=O)N1C[C@H](O)C[C@H]1C(=O)O [Ala-Hyp] (H-Ala-[Hyp]-OH; N-terminus and C-terminus assumed)
- Peptide concentration, Basolateral T0 [1]: 0 ± 0 µg/mL

Compound: NCC(=O)N1CCC[C@H]1C(=O)N1C[C@H](O)C[C@H]1C(=O)O [Gly-Pro-Hyp] (H-Gly-Pro-[Hyp]-OH; N-terminus and C-terminus assumed)
- Peptide concentration, Basolateral T0 [1]: 0 ± 0 µg/mL
- greatest content found in the blood [2]: ~22 µM
- time of peak blood content [2]: 1 h
- percentage transported across the cell monolayer [3]: 3.59%

Compound: NCC(=O)N1CCC[C@H]1C(=O)O [Gly-Pro] (H-Gly-Pro-OH; N-terminus and C-terminus assumed)
- Peptide concentration, Basolateral T0 [1]: 0 ± 0 µg/mL

Compound: O=C(O)[C@@H]1C[C@@H](O)CN1C(=O)[C@@H]1CCCN1 [Pro-Hyp] (H-Pro-[Hyp]-OH; N-terminus and C-terminus assumed)
- Peptide concentration, Basolateral T0 [1]: 0 ± 0 µg/mL

Compound: Gly-Ala-[Hyp]
- activity against DPP-IV [4]: only Gly-Pro-Hyp showed any activity

Compound: Gly-Pro-Ala
- activity against DPP-IV [4]: only Gly-Pro-Hyp showed any activity

Compound: HLPLP
- permeability ([5]; not told): 0.018%

Compound: LPYPY
- permeability ([5]; milk-derived peptides, literature): 0.05%

Compound: SDK
- permeability ([5]; not told): 21.68%

Compound: YPY
- permeability ([5]; not told): 5.56%
